Source: patent publication EP0459298A2, “Use of substituted beta-hydroxyethylamines as potent inhibitors of a fungal exoenzyme” (HOECHST AKTIENGESELLSCHAFT, priority 1990, dated 1991)
Like-named read-outs stand apart in the source and are kept apart here.

Tests used:
Candida albicans = tested on: Candida albicans; parameters: species or system Maus; details: in vivo; for Überlebenszeit (bez. auf Fluconazol = 100 % ): 50 mg/kg
From the text: Als Beispiele für die systemische in vivo-Wirksamkeit der Verbindungen dient die systemische Candida albicans Infektion bei der Maus.
Ziel dieser Methode ist es, den Effekt von Präparaten auf eine systemische Candida albicans Infektion zu ermitteln. Die Infektion führt innerhalb von 2-4 Tagen zum Tod der Tiere.
Beschreibung der Methode: Albino Mäuse (NMRI, Männchen, 15-20 g Körpergewicht) werden intravenös mit Candida albicans Hefezellen infiziert (Stamm 200/175), die frisch auf Malzagar vorkultiviert wurden und in physiologischer Kochsalzlösung suspendiert wurden. Die Infektionsdosis, die in dem angegebenen Zeitrahmen zur Lethalität führt, wurde photometrisch eingestellt und enthielt eine Million Hefezellen pro Maus.
Die zu prüfenden Verbindungen werden entweder alleine oder in Kombination mit einem Standardantimykotikum verabreicht. Im durchgeführten Test wurde ein Kombinationspräparat verwendet, wobei als Standardantimykotikum Fluconazol (Fa. Pfizer) diente. Applikationswege sind je nach Substanzgruppe unterschiedlich, wobei der oralen Applikation der Vorzug gegeben wird. Die Mäuse werden 4 Wochen beobachtet, die Mortalität wird täglich registriert, und die Überlebenszeiten der einzelnen Gruppen werden gemittelt und untereinander verglichen. Gruppengröße beträgt durchschnittlich 10 Tiere.
Der Vergleich der Mittelwerte geschieht mit dem Students T Test.
Dosierungen: Fluconazol jeweils 8 x p.o. 50 mg/kg/Tag β-Hydroxy-ethylamin jeweils 14 x p.o. 50 mg/kg/Tag

Plasmopara viticola = assay: Fungicidal activity on vine seedlings inoculated with Plasmopara viticola; type: in vivo, Weinsämlinge; details: untreated infected control = 100
Protocol: Weinsämlinge wurden ca. 6 Wochen nach der Aussaat mit wäßrigen Suspensionen der zu untersuchenden Verbindungen gleichmäßig benetzt. Nach dem Antrocknen des Spritzbelages wurden die Pflanzen mit einer Sporensuspension von Plasmopara viticola inokuliert und für kurze Zeit in eine Klimakammer (23 °C und 80-90 % rel. Luftfeuchte) gestellt. Nach einer Inkubationszeit von 7 Tagen wurden die Pflanzen zur Sporulation des Pilzes erneut für einige Stunden in die Klimakammer gestellt. Anschließend erfolgte die Auswertung des Befalls. Der Befallsgrad wird ausgedrückt in % befallener Blattfläche im Vergleich zu den unbehandelten, infizierten Kontrollpflanzen und ist in Tabelle 4 wiedergegeben.

[1] = tested on: Trichophyton mentagrophytes; assay: Percent killing of Trichophyton mentagrophytes in vitro; type: cell-based; details: nach 14 h in aqua dest., read-out: %-Abtötung von Trichophyton mentagrophytes; for killing at 2.5 µg/mL: 2,5 µg/ml
Protocol: (Werte in %-Abtötung von Trichophyton mentagrophytes nach 14 h in aqua dest.)

[2] = tested on: liposomalen Phospholipase A1 von Säugern; details: in-vitro-Test; Biochem. Pharmacol. 34, 521-24, 1985; cited from earlier work
[3] = 125 ppm Wirkstoff (mg Wirkstoff/Liter Spritzbrühe)
[4] = 250 ppm Wirkstoff (mg Wirkstoff/Liter Spritzbrühe)
[5] = 500 ppm Wirkstoff (mg Wirkstoff/Liter Spritzbrühe)

## OC(Cn1cncn1)(Cn1cncn1)c1ccc(F)cc1F [Fluconazol, reference compound]
Candida albicans; po
  Überlebenszeit (bez. auf Fluconazol = 100 % ): 100%

## CCCCNCC(O)COc1ccc(C(C)(C)C)cc1 (centres unmarked) [Verbindung 1.37]
Plasmopara viticola; [3]
  mit Plasmopara viticola befallene Blattfläche in %: 0%
Plasmopara viticola; [4]
  mit Plasmopara viticola befallene Blattfläche in %: 0%
Plasmopara viticola; [5]
  mit Plasmopara viticola befallene Blattfläche in %: 0%

## Cc1cc(COc2ccc(Oc3ccc(Cl)cc3)cc2)n(O)c(=O)c1 [Rilopirox, reference compound]
[1]
  killing at 5 µg/mL: 96.2%
  killing at 10 µg/mL: 100%
  killing at 20 µg/mL: 100%
  killing at 40 µg/mL: 100%
  killing at 80 µg/mL: 100%
  killing at 2.5 µg/mL: 94.1%

## CC(C)(C)c1ccc(OCC(O)CNCc2cccs2)cc1 (centres unmarked) [Verbindung 1.32]
Plasmopara viticola; [3]
  mit Plasmopara viticola befallene Blattfläche in %: 0%
Plasmopara viticola; [4]
  mit Plasmopara viticola befallene Blattfläche in %: 0%
Plasmopara viticola; [5]
  mit Plasmopara viticola befallene Blattfläche in %: 0%

## CC(C)CC(C)NCC(O)COc1ccccc1C1CCCC1 (centres unmarked) [Verbindung 1.10]
Candida albicans
  Überlebenszeit (bez. auf Fluconazol = 100 % ): 149%

## CC(C)(C)c1ccc(OCC(O)CNc2ccccc2)cc1 (centres unmarked) [Verbindung 1.16]
Candida albicans
  Verlängerung der Überlebenszeit: 65%
  Überlebenszeit (bez. auf Fluconazol = 100 % ): 165%

## COc1ccc(CC(C)(C)NCC(O)COc2ccccc2C2CCCC2)cc1 (centres unmarked) [Verbindung 1.18]
[1]
  killing at 5 µg/mL: 95.7%
  killing at 10 µg/mL: 100%
  killing at 20 µg/mL: 100%
  killing at 40 µg/mL: 100%
  killing at 80 µg/mL: 100%
  killing at 2.5 µg/mL: 79.3%

## CC(C)NCC(O)COc1cccc2ccccc12 (centres unmarked) [Propranolol]
[2]
  Hemmwirkung gegenüber Phospholipase aus Leberzellen: wirksamste Substanz
